The results in this text go back to US20260216180A1, “QUINOLINE DERIVATIVE COMPOUNDS OR PHARMACEUTICALLY ACCEPTABLE SALT THEREOF, PREPARATION METHOD THEREFOR AND USE THEREOF” (JIANGSU CAREPHAR PHARMACEUTICAL CO.,LTD., priority 2023, published 2026).

Marks after values point to notes of the source that are not given here. Bounds are passed on as bounds.

In one assay the target is T1, CYP2B6 (Homo sapiens, UniProt P20813).
T1 construct: Commercially available mixed human liver microsomes were used; from tissue; host or cells: pooled human liver microsomes
T1 sequence (P20813 1-491): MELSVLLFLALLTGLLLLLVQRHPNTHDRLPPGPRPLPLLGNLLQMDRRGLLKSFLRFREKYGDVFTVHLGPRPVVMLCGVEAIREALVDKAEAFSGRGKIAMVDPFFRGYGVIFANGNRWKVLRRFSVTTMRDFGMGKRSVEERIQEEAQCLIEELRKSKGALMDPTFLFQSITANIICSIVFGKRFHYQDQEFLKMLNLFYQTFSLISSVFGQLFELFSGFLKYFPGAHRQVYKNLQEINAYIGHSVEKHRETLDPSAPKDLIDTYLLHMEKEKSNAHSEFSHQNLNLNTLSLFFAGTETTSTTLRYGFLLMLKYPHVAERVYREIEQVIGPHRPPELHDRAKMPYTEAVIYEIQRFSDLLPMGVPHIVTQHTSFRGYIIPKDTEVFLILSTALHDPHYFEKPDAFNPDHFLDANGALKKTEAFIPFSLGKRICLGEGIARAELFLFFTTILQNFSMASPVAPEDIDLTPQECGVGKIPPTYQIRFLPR
The experiment in a line: CYP enzyme inhibition, human liver microsomes, CYP2B6. As to conditions: probe substrate Bupropion, read-out: IC50 CYP 2B6. The class given is in vitro ADME. How it is done:
Commercially available mixed human liver microsomes were used, with the liver microsome concentrations of diclofenac, dextromethorphan, and midazolam being 0.1 mg/mL; and the liver microsome concentrations of phenacetin, bupropion, amodiaquine, mephenytoin, and testosterone being 0.2 mg/mL. Probe substrate, specific inhibitor and test compound (ABX464, compound 18) were diluted to the corresponding concentration of working solution for use. A mixed solution containing liver microsomes, MgCl2, substrate, […] inhibitor, and the test compound was prepared. After the incubation, 600 μL of ice-cold ACN working solution containing IS was added to terminate the reaction, and the mixture was centrifuged and used for LC-MS/MS detection. [table] At different concentrations of the test compound or positive inhibitor, the percentage of remaining activity is determined by the ratio of the amount of characteristic metabolites of the probe substrate generated to the corresponding amount generated in the absence of the test compound or positive inhibitor. […]

The test system of the next assay is DSS colitis model. The experiment in a line: In vivo efficacy in 3% DSS colitis model in mice. More on the design: species or system male C57BL/6 mice. The settings on record: for Colon length / Colon weight / Pathological score: D0-D11, DSS colitis mice; for Colon length / Colon weight: D11; for Pathological score: colon HE staining. On the procedure:
In this experiment, male C57BL/6 mice (from Jiangsu Jicui Pharmaceutical Biotechnology Co., Ltd.) were used to establish a colitis model by freely drinking 3% DSS water. After the adaptive feeding of mice, they were randomly divided into 4 groups according to their body weight: normal control group, DSS enteritis model group, compound 18-10 mg/kg group, and ABX464-40 mg/kg group. The day of grouping was recorded as DO. On D0-D8, mice in G2-G4 groups were given 3% DSS drinking water, which was changed every 3 days. On D9-D11, mice in G2-G4 groups were given normal drinking water. The corresponding solvents and drugs were intragastrically administered for 11 consecutive days from D0 to D11. From D0 to D11, mice in the G1 group received normal diet and water, and were given blank-vehicle for 11 consecutive days. The mice were observed daily from D0 to D11, their weights were recorded, diarrhea scores and bloody stool scores were measured daily, and the DAI values were calculated. On D11, mice were euthanized, colon tissue was obtained, colon length was measured, colon weight was weighed, and photos were taken. The colon tissues were subjected to HE staining and pathological analysis. Statistical analysis: Independent sample T test was used. #: P<0.05 compared with the normal control group; ##: P<0.01 compared with the normal control group; ###: P<0.001 compared with the normal control group. *: P<0.05 compared with the model control group; **: P<0.01 compared with the model control group; ***: P<0.001 compared with the model control group.

Another assay has as its system miR-124. The assay is described as follows: Regulation of miR-124 expression in a PBMC in vitro model (qPCR). The class given is cell-based. As to conditions: 5 μM test compound, 24 h, human PBMC stimulated with PHA-L and IL-2; miR-191 internal reference; read-out: Relative expression of miR-124, fold change compared with DMSO-treated cells. How it is done: Pharmacological Activity Test: Regulation of miR-124 Expression by the Quinoline Derivatives in a PBMC In Vitro Model
• a. human PBMC cells • b. PHA-L • c. IL-2 • d. mirVana™ miRNA Extraction kit • e. TaqMan Advanced miRNA cDNA Synthesis Kit • f. TaqMan Fast Gene Expression Master Mix • g. TaqMan Advanced miRNA Assay (mir191) • h. TaqMan Advanced miRNA Assay (mir124)
Human PBMC cells were resuscitated. The cell suspension was transferred to a 75 cm^2 culture flask containing 13 mL of culture medium. The cells were cultured overnight in a 37° C., 5% CO2 incubator. The cell suspension was then collected in a conical flask, centrifuged at 1200 rpm for 5 minutes, and the supernatant was discarded. The cells were resuspended in 1 mL of fresh culture medium, and then the cell clumps were gently blown apart and inoculated into a 6-well plate at a density of 4*10^6 cells/mL. 5 μg/mL PHA-L and 10 ng/mL IL-2 were added to each well. The cells were incubated in the incubator for 48 hours. 5 μM of the test compound was added to each well of a 6-well plate, and 0.1% DMSO was added to the blank control wells, and the plate was incubated at 37° C. for 24 h. Cells were collected, Total RNA was isolated and extracted according to the procedure of the mirVana™ miRNA Extraction Kit, and cDNA was prepared according to the procedure of the TaqMan Advanced miRNA cDNA Synthesis Kit. MiR-191 was used as the internal reference gene for qPCR test.
That is, RNA sample→poly (A) tailing reaction→adapter reaction→reverse transcription (RT) reaction→miR-amplification reaction→qPCR test.
The qPCR procedure includes: 50° C. 2 min; 95° C. 20 s; 95° C. 1 s, a 60° C. 20 s, 40 cycles.
The relative gene expression was calculated using the following formula: ΔCt=Ct (miR-124)−Ct (miR-191)
Relative miRNA expression=2^−ΔCt.
(Quantitative PCR measures a nucleic acid by following its amplification.)

The mark [1] stands for this setting: 10 mg/kg o.p. QD, listed as compound 18.
The mark [2] stands for this setting: 10 mg/kg o.p. QD, DSS colitis mice.

A word on the IC50: it is the concentration that gives 50% inhibition. Consider `FC(F)(F)Oc1ccc(Nc2ccc3cccc(Cl)c3n2)cc1` [ABX464, reference compound], for which the IC50 at CYP2B6 is 86.7 µM. Besides, the “DAI score compared with DSS enteritis model control group” value in the assay on DSS colitis model (40 mg/kg o.p. QD, DSS colitis mice) is “significantly reduced”.

As to `Fc1cc(Cl)c2nc(Nc3ccc(C4(C(F)(F)F)CC4)cc3)ccc2c1` [Compound 18, 8-chloro-6-fluoro-N-(4-(1-(trifluoromethyl)cyclopropyl)phenyl)quinolin-2-amine], the IC50 on CYP2B6 was more than 100 µM. Besides, in the assay with DSS colitis model (10 mg/kg o.p. QD), the Colon length is recorded as 6.6*** cm, the Colon weight is given as 0.3710** g and the Pathological score is 4.00. In the assay on DSS colitis model (setting [1]), the Colon length entry is listed as “significantly increased”, the Colon weight entry is reported as “significantly increased” and the Pathological score result is recorded as “significantly reduced”. Moreover, in the assay on DSS colitis model (setting [2]), the “Body weight of mice compared with DSS enteritis model control group” value was “significantly increased” and the “DAI score compared with DSS enteritis model control group” value is reported as “significantly reduced”. The fold induction at 5 µM in the assay on miR-124 is 125.
